The text below walks through data of article PMC9822396 (Molecules, 2022).

Assay [1] deals with T1, hMAO-B (Homo sapiens, UniProt P27338).
T1 construct: purchased Sigma-Aldrich
T1 sequence (P27338 1-520): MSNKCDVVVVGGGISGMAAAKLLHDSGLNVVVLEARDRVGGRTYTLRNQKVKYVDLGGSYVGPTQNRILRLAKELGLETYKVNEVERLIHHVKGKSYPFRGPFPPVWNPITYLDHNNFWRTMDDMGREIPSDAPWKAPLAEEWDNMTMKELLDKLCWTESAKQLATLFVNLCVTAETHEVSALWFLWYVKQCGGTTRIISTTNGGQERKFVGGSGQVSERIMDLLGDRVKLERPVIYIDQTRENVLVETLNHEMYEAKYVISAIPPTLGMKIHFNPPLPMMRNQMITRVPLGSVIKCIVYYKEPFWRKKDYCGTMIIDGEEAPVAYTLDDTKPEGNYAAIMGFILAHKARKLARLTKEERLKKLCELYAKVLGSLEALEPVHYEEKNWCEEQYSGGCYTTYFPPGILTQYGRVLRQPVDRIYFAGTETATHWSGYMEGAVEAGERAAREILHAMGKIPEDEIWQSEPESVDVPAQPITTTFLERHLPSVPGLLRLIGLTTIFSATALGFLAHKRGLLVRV
Briefly: biochemical. The format is biochemical. The following applies: for remaining activity at 10 µM: read-out: Residual Activity at 10 µM (%) hMAO-B; for SI: hMAO-B selectivity: IC50 of hMAO-A divided by IC50 of hMAO-B. The procedure:
(§1) All other chemicals were of reagent grade.
(§2) hMAO-A and -B activities were determined using a continuous spectrophotometric method, as described previously. […] AChE and BChE activities were assayed as described by Ellman et al., with slight modification. Reactions were performed using AChE and BChE in the 0.5 mL reaction mixtures including 0.5 mM substrate (ATCI and BTCI, respectively) and color reagent (DTNB). […] Reaction rates are expressed as changes in absorbance per min.. Inhibitory activities of AChE and BChE were measured after preincubating enzyme with inhibitors for 15 min before adding DTNB and each substrate. […]

Another assay concerns the target T2, AChE (Electrophorus electricus, UniProt O42275).
T2 construct: purchased Sigma-Aldrich
The assay can be described thus: AChE inhibition (Ellman method). The format is biochemical. The following applies: read-out: Residual Activity at 10 µM (%) AChE. The procedure: as §1, §2
On the technique in general: In Ellman's method for cholinesterases, released thiocholine reacts with DTNB.

For the next assay, the target named is T3, BACE1 (Homo sapiens, UniProt P56817).
T3 construct: purchased Sigma-Aldrich
The assay can be described thus: BACE1 inhibition (fluorescent activity detection kit). The format is biochemical. The following applies: read-out: Residual Activity at 10 µM (%) BACE1.

Another assay has as its target T4, hMAO-A (Homo sapiens, UniProt P21397).
T4 construct: purchased Sigma-Aldrich
T4 sequence (P21397 1-527): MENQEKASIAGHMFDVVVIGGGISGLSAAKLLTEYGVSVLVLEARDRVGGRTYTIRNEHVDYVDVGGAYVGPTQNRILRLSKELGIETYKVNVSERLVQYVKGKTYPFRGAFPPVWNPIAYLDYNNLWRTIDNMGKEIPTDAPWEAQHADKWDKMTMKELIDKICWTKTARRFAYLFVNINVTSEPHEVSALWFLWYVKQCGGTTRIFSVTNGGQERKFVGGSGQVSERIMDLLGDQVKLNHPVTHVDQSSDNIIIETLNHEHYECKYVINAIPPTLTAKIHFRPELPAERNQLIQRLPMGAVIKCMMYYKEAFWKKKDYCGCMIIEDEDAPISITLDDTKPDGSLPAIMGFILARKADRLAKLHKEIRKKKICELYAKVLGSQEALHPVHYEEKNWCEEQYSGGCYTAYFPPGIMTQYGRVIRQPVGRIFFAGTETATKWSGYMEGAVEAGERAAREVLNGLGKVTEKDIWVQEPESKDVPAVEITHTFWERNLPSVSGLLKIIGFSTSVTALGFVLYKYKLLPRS
The assay can be described thus: biochemical. To be noted: for remaining activity at 10 µM: read-out: Residual Activity at 10 µM (%) hMAO-A. On the procedure:
as §1
hMAO-A and -B activities were determined using a continuous spectrophotometric method, as described previously. […] AChE and BChE activities were assayed as described by Ellman et al., with slight modification. Reactions were performed using AChE and BChE in the 0.5 mL reaction mixtures including 0.5 mM substrate (ATCI and BTCI, respectively) and color reagent (DTNB). […] Reaction rates are expressed as changes in absorbance per min.. Inhibitory activities of AChE and BChE were measured after preincubating enzyme with inhibitors for 15 min before adding DTNB and each substrate.
Inhibitory types and Ki values were determined using Lineweaver-Burk plots and secondary plots of their slopes, respectively.

A further assay concerns the target T5, BChE (Equus caballus, UniProt P81908).
T5 construct: BChE from equine serum; purchased Sigma-Aldrich; host or cells: equine serum
The assay can be described thus: BChE inhibition (Ellman method). The format is biochemical, equine. The following applies: read-out: Residual Activity at 10 µM (%) BChE. On the procedure:
as §1, §2

Assay [2] deals with T1, hMAO-B. The following applies: read-out: hMAO-B inhibitory activity; cited from earlier work.

Structures are written as SMILES. Where two headings read alike, the source gives them in different places.

T3 sequence (P56817 46-501): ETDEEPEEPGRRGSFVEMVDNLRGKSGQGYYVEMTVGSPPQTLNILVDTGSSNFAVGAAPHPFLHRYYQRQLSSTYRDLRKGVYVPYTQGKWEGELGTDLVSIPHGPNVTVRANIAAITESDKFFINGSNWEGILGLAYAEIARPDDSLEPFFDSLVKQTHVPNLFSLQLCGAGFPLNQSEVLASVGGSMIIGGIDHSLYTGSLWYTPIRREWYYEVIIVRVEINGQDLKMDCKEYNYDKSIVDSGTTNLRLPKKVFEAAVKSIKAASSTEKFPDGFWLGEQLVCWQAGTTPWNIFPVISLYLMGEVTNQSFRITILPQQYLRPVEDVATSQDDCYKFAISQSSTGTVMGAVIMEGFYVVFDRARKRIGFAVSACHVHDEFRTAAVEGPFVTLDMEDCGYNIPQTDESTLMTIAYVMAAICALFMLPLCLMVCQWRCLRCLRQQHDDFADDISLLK
T5 sequence (P81908 whole entry): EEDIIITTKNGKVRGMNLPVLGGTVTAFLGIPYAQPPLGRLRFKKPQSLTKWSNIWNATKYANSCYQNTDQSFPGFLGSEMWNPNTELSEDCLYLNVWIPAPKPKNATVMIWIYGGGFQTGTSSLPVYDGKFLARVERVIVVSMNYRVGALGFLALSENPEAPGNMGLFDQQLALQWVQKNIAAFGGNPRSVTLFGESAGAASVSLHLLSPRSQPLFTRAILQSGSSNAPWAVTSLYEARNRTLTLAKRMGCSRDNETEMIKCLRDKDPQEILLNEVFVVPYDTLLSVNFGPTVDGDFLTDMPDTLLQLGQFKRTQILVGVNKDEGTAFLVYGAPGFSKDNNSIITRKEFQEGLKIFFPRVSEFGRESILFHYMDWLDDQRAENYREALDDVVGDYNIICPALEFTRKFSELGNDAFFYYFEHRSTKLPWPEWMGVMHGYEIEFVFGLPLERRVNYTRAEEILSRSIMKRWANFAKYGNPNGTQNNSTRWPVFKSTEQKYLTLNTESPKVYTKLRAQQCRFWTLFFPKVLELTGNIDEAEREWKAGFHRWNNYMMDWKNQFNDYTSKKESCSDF
T2 sequence (O42275 24-633): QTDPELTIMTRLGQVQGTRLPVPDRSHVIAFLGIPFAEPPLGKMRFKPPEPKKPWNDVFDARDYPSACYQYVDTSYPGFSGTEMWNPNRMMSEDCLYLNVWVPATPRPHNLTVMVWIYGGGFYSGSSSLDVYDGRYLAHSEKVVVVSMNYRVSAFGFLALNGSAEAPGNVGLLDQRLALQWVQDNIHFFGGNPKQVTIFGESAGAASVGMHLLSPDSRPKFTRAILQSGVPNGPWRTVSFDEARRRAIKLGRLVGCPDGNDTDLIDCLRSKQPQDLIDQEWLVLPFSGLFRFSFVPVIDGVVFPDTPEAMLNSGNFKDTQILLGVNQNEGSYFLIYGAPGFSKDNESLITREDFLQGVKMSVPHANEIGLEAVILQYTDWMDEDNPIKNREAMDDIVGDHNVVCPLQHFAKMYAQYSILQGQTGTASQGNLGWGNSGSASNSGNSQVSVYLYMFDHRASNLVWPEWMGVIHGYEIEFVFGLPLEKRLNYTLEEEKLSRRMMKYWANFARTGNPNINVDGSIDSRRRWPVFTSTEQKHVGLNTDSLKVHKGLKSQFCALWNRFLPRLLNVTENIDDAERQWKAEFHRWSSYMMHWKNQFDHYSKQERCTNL

With `C[C@@H]1O[C@@H](OC[C@H]2O[C@@H](Oc3c(-c4ccc(O)c(O)c4)oc4cc(O)cc(O)c4c3=O)[C@H](O)[C@@H](O)[C@@H]2O)[C@H](O)[C@H](O)[C@H]1O` [Compound 1, rutin], the IC50 at hMAO-B [1] and against hMAO-A was > 40 µM in each case. The remaining activity at 10 µM on hMAO-B [1] was 75.2 ± 6.76%; on AChE, 92.4 ± 7.16%; on BACE1 it was 82.6 ± 3.77%; on hMAO-A it was 96.8 ± 1.52%; at BChE it was 99.2 ± 0.88%.
Turning to `COc1cc2c(cc1O[C@@H]1O[C@H](CO)[C@@H](O)[C@H](O)[C@H]1O)O[C@H](c1ccccc1)[C@@H](O)C2=O` [Compound 2, (2R,3R)-3-hydroxy-7-O-β-D-glucopyranoside-6-methoxyflavanone], the IC50 against hMAO-B [1] and against hMAO-A was > 40 µM each time. In addition, the remaining activity at 10 µM at hMAO-B [1] turned out to be 69.6 ± 2.46%; at AChE, 84.8%; at BACE1, 164 ± 2.96%; at hMAO-A, 98.3 ± 2.01%; at BChE it was 97.5 ± 0.42%.
On to `COc1cc([C@H]2OC[C@H]3[C@@H]2CO[C@@H]3c2cc(OC)c(O[C@@H]3O[C@H](CO)[C@@H](O)[C@H](O)[C@H]3O)c(OC)c2)cc(OC)c1O` [Compound 3, (–)-syringaresinol-4-O-β-D-glucopyranoside], for which the IC50 at hMAO-B [1] and against hMAO-A was > 40 µM each time. Besides, the remaining activity at 10 µM was 93.6 ± 3.47% at hMAO-B [1]; 95.22 ± 0.08% at AChE; 76.7 ± 4.92% on BACE1; 80 ± 2.02% on hMAO-A; 98.9 ± 1.54% at BChE.
Turning to `COc1ccc(-c2coc3cc(O[C@@H]4O[C@H](CO)[C@@H](O)[C@H](O)[C@H]4O)ccc3c2=O)cc1` [Compound 4, ononin], the IC50 on hMAO-B [1] is 28.5 ± 1.55 µM; against hMAO-A, > 40 µM. The SI at hMAO-B [1] is >1.40. Also, the remaining activity at 10 µM on hMAO-B [1] was found to be 63.5 ± 1.23%; on AChE, 86.1 ± 1.79%; on BACE1 it was 85.9 ± 0.08%; at hMAO-A, 98.3 ± 1.64%; at BChE it was 96.7 ± 1.68%.
Take `COc1cc([C@H]2OC[C@H]3[C@@H]2CO[C@@H]3c2cc(OC)c(O)c(OC)c2)cc(OC)c1O` [Compound 5, (+)-syringaresinol]: the IC50 against hMAO-B [1] is 24.3 ± 2.2 µM; against hMAO-A, > 40 µM. In addition, the remaining activity at 10 µM on hMAO-B [1] was 63.2 ± 6.24%; at BACE1 it was 81.7 ± 4.01%; at hMAO-A, 80.4 ± 6.57%.
For the compound `COc1cc2c(cc1O)O[C@H](c1ccccc1)[C@@H](O)C2=O` [Compound 6, (2R,3R)-3,7-dihydroxy-6-methoxyflavanone], the IC50 on hMAO-B [1] and against hMAO-A was > 40 µM each time. The remaining activity at 10 µM was found to be 94.6 ± 4.21% on hMAO-B [1]; 84.3 ± 1.31% at AChE; 95.72 ± 0.86% on BACE1; 94.8 ± 1.9% on hMAO-A; 91.8 ± 1.35% at BChE.
As to `COc1cc(O)c2c(=O)c(-c3ccc(O)cc3O)coc2c1` [Compound 7, cajanin], the IC50 is 5.18 ± 0.11 µM against hMAO-B [1] and 13.1 ± 0.23 µM against hMAO-A. The compound also gave an SI on hMAO-B [1] of 2.53. Moreover, the remaining activity at 10 µM is 31.6 ± 4.21% on hMAO-B [1]; 70.8 ± 7.2% at AChE; 83.25 ± 0.45% at BACE1; 56.9 ± 0.92% on hMAO-A; 86.9 ± 2.11% on BChE.
Consider `COc1cc(O)c2c(=O)c(-c3ccc(O)cc3)coc2c1` [Compound 9, prunetin], for which the IC50 on hMAO-B [1] was 5.18 ± 0.059 µM; at hMAO-A, 2.49 ± 0.32 µM. On hMAO-B [1], this compound returned an SI of 0.48. The remaining activity at 10 µM on hMAO-B [1] was determined as 30.8 ± 0.82%; at AChE it was 83.2 ± 4.76%; at BACE1, 87.73 ± 0.59%; at hMAO-A, 24.8 ± 1.22%; at BChE it was 93 ± 0.65%.
Consider `COc1cc(O)c2c(=O)c(-c3ccc(OC)c(O)c3)coc2c1` [Compound 10, 7,4′-dimethyl-3′-hydroxygenistein], for which the IC50 at hMAO-B [1] came out at 3.47 ± 0.055 µM; against hMAO-A it was 8.05 ± 0.1 µM. In addition, the SI at hMAO-B [1] is 2.32. Further, the remaining activity at 10 µM at hMAO-B [1] stood at 16.9 ± 2.47%; on AChE, 78.4 ± 3.4%; at BACE1, 78.86 ± 0.56%; on hMAO-A it was 41 ± 1.09%; on BChE, 98.1 ± 1.98%.
For `COc1ccc(-c2coc3cc(OC)ccc3c2=O)cc1` [Compound 11, 7,4′-dimethoxyisoflavone], the IC50 came out at 13.7 ± 0.1 µM on hMAO-B [1] and 9.8 ± 0.27 µM on hMAO-A. Besides, the SI on hMAO-B [1] came out at 0.72. In addition, the remaining activity at 10 µM at hMAO-B [1] is 62 ± 1.09%; at AChE it was 82.7 ± 5.44%; at BACE1 it was 91.96 ± 0.59%; on hMAO-A, 49.1 ± 2.25%; at BChE, 98.7 ± 0.66%.
Consider `COc1ccc2c(c1)OC[C@H]1c3cc4c(cc3O[C@@H]21)OCO4` [Compound 12, 3-methoxy-8,9-methylenedioxypterocarpan], for which the IC50 on hMAO-B [1] is 3.36 ± 0.09 µM; against hMAO-A, 12.5 ± 0.33 µM. On hMAO-B [1], this compound came in with an SI of 3.72. Moreover, the “times lower MAO-B inhibition than compound 8” value on hMAO-B [1] (ratio of IC50 values versus compound 8) was 7.47 times. Moreover, the remaining activity at 10 µM on hMAO-B [1] stood at 13 ± 0.72%; on AChE, 84.9 ± 0.61%; on BACE1, 102.4 ± 0.4%; on hMAO-A, 60.3 ± 0.9%; at BChE, 93.6 ± 2.11%.
For `COc1ccc(-c2cc(=O)c3c(O)cc(OC)cc3o2)cc1` [acacetin 7-methyl ether], on hMAO-B [2], the IC50 is 0.2 µM.
As for `COc1ccc(-c2coc3cc(O)ccc3c2=O)cc1O` [calycosin], on hMAO-B [2], the IC50 was 0.24 µM.
